Entries after “also recorded” stand apart in the source; their conditions may differ.
Columns and labels:
PKC = details: literature (33,34); cited from earlier work
[1] = system: intact endothelium rat aortic rings; experiment: NE-induced contraction of intact rat aortic rings after 16 h incubation with LPS and/or PKC inhibitors; type: cell-based; details: for EC50: Rattus norvegicus, 16 h, intact endothelium, read-out: EC50 value for NE stimulated contraction (EC50 of the agonist NE)
Method: FIG. 1 is a graph showing contraction to cumulative doses of NE by rat aortic rings incubated for 16 hr in combinations of control, LPS (endotoxin or lipopolysaccharide), H7, and N-(2-guanidinoethyl)-5-isoquinolinesulfonamide (HA1004; a negative control for H7) treated media. (Panel A) Responses by rings incubated in medium only (open circles), medium plus H7 (25 μM, closed circles), medium containing LPS (10 ng/ml, open triangles), and medium containing LPS plus H7 (closed triangles). (Panel B) For clarity in presentation, responses by rings incubated in medium only (open circles) and LPS treated medium (open triangles) are reproduced from Panel A. Additional rings were incubated in medium plus HA1004 (25 μM, closed circles), and medium containing LPS plus HA1004 (closed triangles). Six rings were prepared from each rat and one ring allocated into each medium formulation. […] The curves are the best fit of the data by nonlinear least squares to a polynomial model. N=8 rats.
(§1) Tissue preparation and incubation. Male Sprague-Dawley rats (250-350 g, Taconic Farms, Germantown, N.Y.) were used. Rat thoracic aortic rings were prepared and incubated as detailed by McKenna (14). In brief, 4 or 6 rings were prepared from each rat. Care was taken during dissection to maintain the patency of the endothelium. Some aortas were de-endothelialized before sectioning into rings by perfusion with phosphate buffered saline (PBS) containing 1% deoxycholate for 30 sec followed by a PBS and bubble rinse for 5 min. Rings were incubated in DME (Dulbecco's Modified Eagle's medium) supplemented with 1% fetal calf serum, 100 μg/ml streptomycin, and 100 U/ml penicillin. During incubation, the rings were exposed to combinations of LPS (10 or 35 ng/ml), H7 (25 μM), HA1004 (N-(2-guanidinoethyl)-5-isoquinolinesulfonamide) (25 μM), sphingosine (20 μM), or their vehicles. […] Rings used in measures of contractile performance were placed individually in Petri dishes containing 1.2 ml DME and were distributed so that tissue isolated from each aorta was allocated to every combination of treatments within an experiment. […] All tissue isolated from an aorta (six rings) was allocated to a single treatment. The media and rings were rotated gently for 16-18 hr in an incubator at 37° C. under a 95% O2 -5% CO2 atmosphere.
(§2) Measurement of aortic ring contraction. After incubation, rings were mounted in tissue baths, equilibrated, and pre-contracted as previously detailed (14). These procedures required approximately 90 min. Rings were maintained in Krebs Ringer Bicarbonate buffer (KRB, 14). Contractions by six or eight rings were measured simultaneously and recorded on multichannel strip chart recorders. […] Other rings were contracted by withdrawing KRB from the tissue baths and adding increasing volumes of a high KCl KRB (120 mM, made by equimolar substitution of KCl for NaCl) to the baths to yield final KCl concentrations of 10 to 80 mM. All rings were blotted and weighed after experiments were completed.
(§3) Statistics. […] Tests for differences between EC50 values were based on log EC50 values (17). EC50 values were then converted to […] means to allow expression as nanomolar concentrations. Examination of differences among four or six treatment means was by randomized blocks analysis of variance; if significant differences were present, then pairs of means were tested by Student-Newman-Keuls a posteriori tests (18). Paired t-tests were used to assess differences between two treatment means. […] Differences with probabilities of 0.05 or less were accepted as significant. All data are expressed as means±SEM.

[2] = system: intact endothelium rat aortic rings; experiment: KCl-induced contraction of intact rat aortic rings after 16 h incubation with LPS and/or PKC inhibitors; type: cell-based; details: for EC50: Rattus norvegicus, 16 h, intact endothelium, read-out: EC50 value for KCl stimulated contraction (EC50 of the agonist KCl)
Method: FIG. 2 is a graph showing contraction to cumulative doses of KCl by rat aortic rings incubated for 16 hr in combinations of control, LPS, H7, and HA1004 treated media. (Panel A) Response by rings incubated in medium only (open circles), medium plus H7 (25 μM, closed circles), medium containing LPS (10 ng/ml, open triangles), and medium containing LPS plus H7 (closed triangles). (Panel B) For clarity in presentation, responses by rings incubated in medium only (open circles) and LPS treated medium (open triangles) are reproduced from Panel A. Additional rings were incubated in medium plus HA1004 (25 μM, closed circles), and medium containing LPS plus HA1004 (closed triangles). Rings were prepared and data is presented as described in FIG. 1. N=6 rats.
as §1, §2, §3

endothelial cells [3] = details: literature (1, 2); cited from earlier work
endothelial cells [4] = details: literature (3); cited from earlier work
platelets = details: pretreatment; stimulation with thrombin, OAG, linoleic or linolelaidic acid (25); cited from earlier work
[5] = system: deendothelialized rat aortas; details: literature (26); cited from earlier work
[6] = system: Rabbit aortic smooth muscle cells; details: literature (29); cited from earlier work
[7] = system: Rabbit aortic smooth muscle cells; details: literature; cited from earlier work
rat aortic rings [8] = experiment: Direct contraction of rat aortic rings by phorbol dibutyrate; type: cell-based; set-up: Emax: dose or concentration left out as unconfirmed; details: for EC50: read-out: EC50 for contraction by PDB
Method: Four rings were prepared from each rat and one ring allocated into each medium formulation. Data is presented as in FIG. 1.
as §1, §2, §3

rat aortic rings [9] = experiment: NE-induced contraction of rat aortic rings after 16 h incubation with phorbol dibutyrate; type: cell-based; set-up: contractions to NE; vascular suppression: dose or concentration left out as unconfirmed; details: for EC50: Rattus norvegicus, 16 h
Method: (§4) (Panel B) Contraction to KCl by rings incubated and denoted with the same symbols as detailed above. Four rings were prepared from each rat and one ring allocated into each medium formulation to evaluate responses to NE. Rings were similarly prepared to determine responses to KCl. Data presented as in FIG. 1. N=6 rats apiece for assessment of responses to NE and KCl.
(§5) (Panel B) Contraction to KCl by rings incubated and denoted with the same symbols as detailed above. Four rings were prepared from each rat and one ring allocated into each medium formulation. Data is presented as in FIG. 1. N=8 rats for assessment of responses to both NE and KCl.
as §1, §2, §3

rat aortic rings [10] = experiment: KCl-induced contraction of rat aortic rings after 16 h incubation with phorbol dibutyrate; type: cell-based; details: for EC50: Rattus norvegicus, 16 h
Method: as §4, §5, §1, §2, §3

human neutrophils = details: PMA alone (31); cited from earlier work
[11] = LPS 10 ng/ml plus inhibitor 25 μM
[12] = LPS-treated media (10 ng/ml), alone or plus inhibitor 25 μM
[13] = control media (no LPS) plus inhibitor 25 μM
[14] = inhibitor 25 μM by itself, no LPS

For lipid A, which “activation of PKC in vitro” value (PKC) is on record?
Its value is “can directly activate PKC in vitro”.

For `CC1CNCCN1S(=O)(=O)c1cccc2cnccc12` (stereo not shown) [H7, 1-(5-isoquinolinylsulfonyl)-2-methyl piperazine], which “EC50 and Emax (sensitivity and maximum contraction) to NE versus control tissue” value [1, 11] is on record?
The value was “not significantly different from control tissue”.

What about the EC50 [1, 12] of the same compound?
The EC50 was 0.099 µM.

What about the EC50 [1, 13] of the same compound?
Its EC50 is 0.051 ± 0.015 µM.

And the “blocking of LPS effects on contraction to NE” value ([1]; co-incubation, inhibitor 25 μM, LPS 10 ng/ml)?
Its value is “blocked”.

What about the “contractile function / sensitivity to NE” value [1, 14] of the same compound?
Its value is “little change in contractile function”.

And the “abrogation of LPS effects on contractile function” value ([1]; intact rings, H7 25 μM)?
The value was “clearly abrogated the majority of the deleterious effects of LPS on rat aortic tissue contractile function”.

And the “EC50 and Emax values to KCl versus control tissue” value [2, 11]?
Its value is “did not vary significantly from control tissue”.

What about the “protection against LPS-induced contractile dysfunction (KCl)” value [2, 11] of the same compound?
Its value is “shielded the tissue from LPS-induced contractile dysfunction”.

And the EC50 [2, 12]?
The EC50 was 32000 µM.

What about the EC50 [2, 13] of the same compound?
The EC50 was 28000 ± 1000 µM.

What about the “maximum contraction to KCl” value [2, 14] of the same compound?
The value was “significant increases in maximum contraction”.

And the “sensitivity to KCl” value [2, 14]?
The value was “no enhancement in sensitivity to KCl”.

And the “adhesive proteins on endothelial cell surfaces” value (endothelial cells [3])?
The value was “reduced”.

And the “endothelial cell permeability response to inflammatory agents” value (endothelial cells [4])?
Its value is “abrogated”.

And the “platelet aggregation after stimulation” value (platelets)?
Its value is “blocked”.

And the “blocking of PDB induced contraction” value [5]?
Its value is “ineffective blocker of PDB induced contraction”.

What about the “inhibition of KCl elicited contraction” value [5] of the same compound?
Its value is “significantly inhibits KCl elicited contraction”.

With `CCCCCCCCCCCCCC(=O)O[C@@H]1[C@@H](C)[C@@]2(O)[C@@H](C=C(CO)C[C@]3(O)C(=O)C(C)=C[C@@H]23)[C@@H]2C(C)(C)[C@]12OC(C)=O` [TPA] as the compound, how does the “whole blood serum induced intracellular Ca^2+ mobilization” value [6] read?
Its value is “inhibits whole blood serum induced intracellular Ca^2+ mobilization”.

What about the cell proliferation [7] of the same compound?
The cell proliferation was “modulates cell proliferation”.

Which “platelet aggregation after stimulation” value (platelets) does the source give for polymyxin B here?
Its value is “blocked”.

For `CCCC(=O)O[C@@H]1[C@@H](C)[C@@]2(O)[C@@H](C=C(CO)C[C@]3(O)C(=O)C(C)=C[C@@H]23)[C@@H]2C(C)(C)[C@]12OC(=O)CCC` [PDB, 4β-phorbol-12,13-dibutyrate], which EC50 (rat aortic rings [8]; Rattus norvegicus, 16 h) is on record?
The EC50 was 0.041 ± 0.003 µM.

What about the EC50 (rat aortic rings [8]; Rattus norvegicus) of the same compound?
The EC50 was 0.032 ± 0.004 µM.

What about the Emax (rat aortic rings [8]; Rattus norvegicus, read-out: maximum contraction caused by PDB) of the same compound?
Its Emax is > 90%.

What about the EC50 (rat aortic rings [9]; read-out: EC50 value for NE contraction (EC50 of the agonist NE), rings incubated with 4β-PDB 0.1 μM, 16 h) of the same compound?
Its EC50 is 0.056 µM.

What about the EC50 (rat aortic rings [9]; read-out: EC50 value for NE contraction (EC50 of the agonist NE), rings incubated with 4β-PDB 1.0 μM, 16 h) of the same compound?
The EC50 was 0.184 µM.

What about the EC50 (rat aortic rings [9]; read-out: EC50 value for NE contraction (EC50 of the agonist NE), rings incubated with 4β-PDB 10.0 μM, 16 h) of the same compound?
Its EC50 is 0.283 µM.

And the EC50 (rat aortic rings [10]; read-out: EC50 value for KCl contraction (EC50 of the agonist KCl), rings incubated with 4β-PDB 0.1 μM, 16 h)?
Its EC50 is 22000 µM.

What about the EC50 (rat aortic rings [10]; read-out: EC50 value for KCl contraction (EC50 of the agonist KCl), rings incubated with 4β-PDB 1.0 μM, 16 h) of the same compound?
The EC50 was 27000 µM.

What about the EC50 (rat aortic rings [10]; read-out: EC50 value for KCl contraction (EC50 of the agonist KCl), rings incubated with 4β-PDB 10.0 μM, 16 h) of the same compound?
Its EC50 is 36000 µM.

For `CN[C@@H]1C[C@H]2O[C@@](C)([C@@H]1OC)n1c3ccccc3c3c4c(c5c6ccccc6n2c5c31)C(=O)NC4` [staurosporine], which “adhesive proteins on endothelial cell surfaces” value (endothelial cells [3]) is on record?
The value was “reduced”.

What about the “platelet aggregation after stimulation” value (platelets) of the same compound?
Its value is “blocked”.

Which “contraction of aortic rings by 4α-PDB itself” value (rat aortic rings [8]; concentrations up to 10 μM (data not shown)) does the source give for `CCCC(=O)O[C@@H]1[C@@H](C)[C@@]2(O)[C@@H](C=C(CO)C[C@@]3(O)C(=O)C(C)=C[C@@H]23)[C@@H]2C(C)(C)[C@]12OC(=O)CCC` [4α-PDB, 4-α-phorbol-12,13-dibutyrate] here?
Its value is “could not contract aortic rings at concentrations up to 10 μM”.

And the “contractions to NE; vascular suppression” value (rat aortic rings [9])?
The value was “significantly impaired contractions to NE and KCl; also recorded: equally effective at causing vascular suppression”.

What about the “alterations in EC50 values for NE” value (rat aortic rings [9]; 10 μM 4α-PDB) of the same compound?
The value was “no significant alterations in EC50 values for the agonists”.

And the EC50 (rat aortic rings [9]; read-out: EC50 value for NE contraction (EC50 of the agonist NE), rings incubated with 4α-PDB 10.0 μM, 16 h)?
The EC50 was 0.286 µM.

And the “alterations in EC50 values for KCl” value (rat aortic rings [10]; 10 μM 4α-PDB)?
Its value is “no significant alterations in EC50 values for the agonists”.

What about the “contractions to KCl” value (rat aortic rings [10]; 10 μM 4α-PDB) of the same compound?
Its value is “significantly impaired contractions to NE and KCl”.

And the EC50 (rat aortic rings [10]; read-out: EC50 value for KCl contraction (EC50 of the agonist KCl), rings incubated with 4α-PDB 10.0 μM, 16 h)?
The EC50 was 28000 µM.

Which “synthesis of PAF or LTB4” value (human neutrophils) does the source give for `CCCCCCCCCCCCCC(=O)O[C@@H]1[C@@H](C)[C@@]2(O)[C@@H](C=C(CO)C[C@]3(O)C(=O)C(C)=C[C@@H]23)[C@@H]2C(C)(C)[C@]12OC(C)=O` [PMA] here?
Its value is “could not cause synthesis of either PAF or LTB4”.

— patent USH1168H, “Inhibitors of protein kinase C activity as protectors against septic shock and reducers of ARDS” (priority 1991, dated 1993)
